Assay results as given in patent US20120193574A1, “Method Of Controlling Crystallization” (University of Durham, priority 2009, published 2012).
“Also recorded” adds a separate entry of the source. Each block holds one molecule with its values, some of them ahead of it.

How the values were obtained:
[1] = Crystallisation in microemulsions under confinement; polymorph of the crystals by FTIR, TEM electron diffraction or Raman; assay type: physicochemical
Protocol: Nanocrystals within the microemulsions were analysed by placing drops of the microemulsion onto TEM holey carbon grids and placing in a TEM. Nanocrystal images were taken and selected area electron diffraction patterns from the nanocrystals were captured, from which their polymorphic form could be determined.
Crystals/crystal aggregates were typically extracted via filtration. X-ray diffraction and/or FTIR and/or Raman microscopy techniques were used to determine the polymorph(s) of the extracted crystals/crystal aggregates.
A glycine microemulsion was prepared at ambient temperature containing 4.2 g heptane, 2.8 g of a 1:1 mass ratio of Span 80 and Brij 30, and 0.25 g of glycine solution containing 4% by mass of glycine in water. The microemulsion was shaken by hand to ensure homogeneous mixing. To this was added a microemulsion containing 1.8 g heptane, 2.8 g of a 1:1 mass ratio of Span 80 and Brij 30, 1 g of methanol and 0.25 g of water, with subsequent shaking to ensure homogeneous mixing. The resulting supersaturation ratio (c/csat) was 2.3. The resultant microemulsion was left to stand for 3 weeks at 25° C. […]
ROY microemulsions were prepared at ambient temperatures containing 10% by mass of Igepal CA720 in water and 30 μl/g or 60 μl/g of a ROY in toluene solution containing between 8% to 10% by mass of ROY. […] The crystals/crystal aggregates were extracted by filtration. […]

[2] = Supersaturated solutions stabilised due to confinement in microemulsions; visual inspection or optical microscopy on standing; assay type: physicochemical
Protocol: Glycine microemulsions prepared at ambient temperature containing 4.2 g heptane, 2.8 g of a 1:1 mass ratio of Span 80 and Brij 30, and 0.25 g of glycine solution containing 3-3.5% by mass of glycine in water. The microemulsion was shaken by hand to ensure homogeneous mixing. To this was added a microemulsion containing 1.8 g heptane, 2.8 g of a 1:1 mass ratio of Span 80 and Brij 30, 1 g of methanol and 0.25 g of water, with subsequent shaking to ensure homogeneous mixing. The resulting supersaturation ratio (c/csat) was at 1.7-2.0, i.e. sufficient to cause fast crystallisation of metastable forms in an unconfined system.
Glycine microemulsions prepared at 50° C. containing hexadecane, 15% by mass of a 1:1 mass ratio of Span 20 and Span 80, 1% by mass of ethanol and 1% by mass of a glycine aqueous solution containing 2.5% by mass of glycine. The microemulsion was placed in a water bath at 50° C. and cooled to 26° C. over 24 hours. The resulting supersaturation ratio (c/csat) was at least 4, i.e. sufficient to cause rapid crystallisation in an unconfined system.
ROY microemulsions prepared at ambient temperatures containing 10% by mass of Igepal CA720 in water, 30 μl/g of a toluene solution containing 6% by mass of ROY and 12 μl/g of heptane. The resulting supersaturation ratio (c/csat) was at least 4, i.e. sufficient to cause crystallisation typically within a few hours in an unconfined system.
The mefenamic acid-in-DMF bulk solutions and microemulsions, were prepared at elevated temperature (˜50-60° C.). The microemulsion consisted of 3 g of AOT solution containing 3% by mass of AOT in heptane to which was added 20 μl of a mefenamic acid solution containing 70-75 mg of mefenamic acid per ml DMF. The microemulsion was cooled from 50 to 8° C. over 12 hours and then left at 8° C. The resulting supersaturation ratio (c/csat) was 3.9-4.1, i.e. sufficient to cause crystallisation of metastable form II typically within a few hours in an unconfined system.

[3] = cited from earlier work

polymorph of crystals/crystal aggregates (FTIR) ([1]; Example 5: Igepal CA720/water microemulsion, 8% to 10% ROY in toluene, dropwise heptane antisolvent, ambient): yellow prism polymorph of ROY
crystals by visual inspection or optical microscopy on standing ([2]; 6% ROY in toluene, Igepal CA720/water microemulsion with heptane, after 1 month): No crystals were observed
resulting supersaturation ratio (c/csat) ([2]; 6% by mass ROY in toluene, 30 μl/g, Igepal CA720/water microemulsion, 12 μl/g heptane): at least 4
Molecule: Cc1cc(C#N)c(Nc2ccccc2[N+](=O)[O-])s1 [ROY, 5-Methyl-2-[(2-nitrophenyl)amino]-3-thiophenecarbonitrile]
energy of yellow prism form below the orange needle and orange prism forms ([3]; ambient temperatures): ~0.0717 kcal/mol

resulting supersaturation ratio (c/csat) ([1]; Example 1: 4% by mass glycine solution in heptane/Span 80/Brij 30 microemulsion plus methanol antisolvent microemulsion): 2.3
resulting supersaturation ratio (c/csat) ([2]; 2.5% by mass glycine solution, hexadecane/Span 20/Span 80 microemulsion cooled 50 to 26° C. over 24 hours): at least 4
crystals by visual inspection or optical microscopy on standing ([2]; 2.5% glycine solution, hexadecane/Span 20/Span 80 microemulsion cooled to 26° C., after 1 month): No crystals were observed
resulting supersaturation ratio (c/csat) ([2]; 3-3.5% by mass glycine solution, heptane/Span 80/Brij 30 microemulsion plus methanol microemulsion): 1.7-2.0
crystals by visual inspection or optical microscopy on standing ([2]; microemulsion from 3% by mass glycine in water, after 3 months): No crystals were observed
crystals by visual inspection or optical microscopy on standing ([2]; microemulsion from 3.5% glycine in water, after 3 months): only a few μm sized crystals apparent
Molecule: NCC(=O)O [glycine]
polymorph of extracted crystals (FTIR) ([1]; Example 1: methanol antisolvent microemulsion added, c/csat 2.3, 3 weeks at 25° C.): predominantly of γ-glycine; also recorded: stable γ-polymorph of glycine with virtually no α-polymorph
polymorph of nanocrystals/nanocrystal aggregates (TEM) ([1]; Example 2: hexadecane/Span 20/Span 80 microemulsion, 7% glycine solution, cooled 50 to 25° C. over 24 hours, after 7 days): predominantly of γ-glycine; also recorded: hexagonal γ-polymorph of glycine
polymorph of crystals/crystal aggregates (FTIR) ([1]; Example 3: heptane/Span 80/Brij 30 microemulsion, 4% glycine solution, vapour diffusion of methanol, ambient temperature): predominantly the γ-polymorph of glycine with some α-polymorph
temperatures at which the γ-phase is the most stable ambient pressure form ([3]; ambient pressure): < 165 °C
energy of γ-phase below the α-phase ([3]; ambient temperatures): ~0.0478 kcal/mol
energy of γ-phase below the β-phase ([3]; ambient temperatures): ~0.143 kcal/mol
stability of γ-polymorph over α-polymorph in the bulk phases ([3]; bulk phases): ~0.048 kcal/mol

resulting supersaturation ratio (c/csat) ([1]; Example 4: 80-100 mg mefenamic acid per ml DMF in AOT/heptane microemulsion cooled from 50 to 8° C.): 4.4-5.5
resulting supersaturation ratio (c/csat) ([2]; 70-75 mg mefenamic acid per ml DMF in AOT/heptane microemulsion cooled from 50 to 8° C.): 3.9-4.1
crystals by visual inspection or optical microscopy on standing ([2]; 70-75 mg/ml mefenamic acid in DMF, AOT/heptane microemulsion at 8° C., after 1 month): No crystals were observed
Molecule: Cc1cccc(Nc2ccccc2C(=O)O)c1C [mefenamic acid]
polymorph of crystals (Raman) ([1]; Example 4: DMF-in-heptane/AOT microemulsion cooled from 50 to 8° C. over 12 hours): predominantly of Form I; also recorded: characteristic Form I peaks
polymorph from crystallization in bulk DMF ([3]; irrespective of rate of crystallization or crystallization temperature): only produces the metastable form II

B1: egg white albumin: Albumin is used to exemplify how protein crystallisation can be achieved (protein, UniProt P01012 2-386, looked up)
Ovalbumin: GSIGAASMEFCFDVFKELKVHHANENIFYCPIAIMSALAMVYLGAKDSTRTQINKVVRFDKLPGFGDSIEAQCGTSVNVHSSLRDILNQITKPNDVYSFSLASRLYAEERYPILPEYLQCVKELYRGGLEPINFQTAADQARELINSWVESQTNGIIRNVLQPSSVDSQTAMVLVNAIVFKGLWEKAFKDEDTQAMPFRVTEQESKPVQMMYQIGLFRVASMASEKMKILELPFASGTMSMLVLLPDEVSGLEQLESIINFEKLTEWTSSNVMEERKIKVYLPRMKMEEKYNLTSVLMAMGITDVFSSSANLSGISSAESLKISQAVHAAHAEINEAGREVVGSAEAGVDAASVSEEFRADHPFLFCIKHIATNAVLFFGRCVSP
crystallisation observed by optical microscopy ([1]; Example 6: isooctane/AOT microemulsion, 5 mg albumin per ml water, methanol microemulsion added, after 48 hours): crystals observed
